Measurements taken from PubChem BioAssay (NCI).
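48-hour exposure; five concentrations; linearly interpolated endpoints. At the GI50, growth is halved. TGI denotes the concentration required for complete inhibition of growth.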

What was measured:
Assay in all cases: inhibition of tumour cell growth, NCI panel, 48 h
NCI-H23 lung = system: NCI-H23 lung
HS 578T breast = system: HS 578T breast
M14 melanoma = system: M14 melanoma
ACHN renal = system: ACHN renal
NCI/ADR-RES ovarian = system: NCI/ADR-RES ovarian
NCI-H460 lung = system: NCI-H460 lung
CCRF-CEM leukemia = system: CCRF-CEM leukemia
COLO 205 colon = system: COLO 205 colon
BT-549 breast = system: BT-549 breast
HCC-2998 colon = system: HCC-2998 colon
LOX IMVI melanoma = system: LOX IMVI melanoma
SNB-19 CNS = system: SNB-19 CNS
SK-MEL-5 melanoma = system: SK-MEL-5 melanoma
SF-268 CNS = system: SF-268 CNS
OVCAR-8 ovarian = system: OVCAR-8 ovarian
NCI-H226 lung = system: NCI-H226 lung
K-562 leukemia = system: K-562 leukemia
RPMI-8226 leukemia = system: RPMI-8226 leukemia
DU-145 prostate = system: DU-145 prostate
CAKI-1 renal = system: CAKI-1 renal
NCI-H522 lung = system: NCI-H522 lung
SNB-75 CNS = system: SNB-75 CNS
HCT-116 colon = system: HCT-116 colon
UACC-257 melanoma = system: UACC-257 melanoma
SF-539 CNS = system: SF-539 CNS
A498 renal = system: A498 renal
RXF 393 renal = system: RXF 393 renal
OVCAR-3 ovarian = system: OVCAR-3 ovarian
HL-60(TB) leukemia = system: HL-60(TB) leukemia
SN12C renal = system: SN12C renal
U251 CNS = system: U251 CNS
MDA-MB-231 breast = system: MDA-MB-231 breast
PC-3 prostate = system: PC-3 prostate
HOP-62 NSCLC = system: HOP-62 NSCLC
TK-10 renal = system: TK-10 renal
A549 NSCLC = system: A549 NSCLC
UACC-62 melanoma = system: UACC-62 melanoma
MOLT-4 leukemia = system: MOLT-4 leukemia
MCF7 breast = system: MCF7 breast
MDA-MB-435 = system: MDA-MB-435
SF-295 CNS = system: SF-295 CNS
SK-MEL-2 melanoma = system: SK-MEL-2 melanoma
SK-MEL-28 melanoma = system: SK-MEL-28 melanoma
SW-620 colon = system: SW-620 colon
HCT-15 colon = system: HCT-15 colon
T-47D breast = system: T-47D breast
786-0 renal = system: 786-0 renal
HOP-92 NSCLC = system: HOP-92 NSCLC
KM12 colon = system: KM12 colon
EKVX NSCLC = system: EKVX NSCLC
OVCAR-5 ovarian = system: OVCAR-5 ovarian

CCN1C2=C(SC(=S)C1=C1SC(C(=O)OC)=C(C(=O)OC)S1)SC(=Nc1ccc(OC)cc1)C2=O
GI50 (NCI-H23 lung): 2.27 µM
TGI (NCI-H23 lung): 4.17 µM
GI50 (HS 578T breast): 3.93 µM
TGI (HS 578T breast): > 100 µM
GI50 (M14 melanoma): 1.75 µM
TGI (M14 melanoma): 3.75 µM
GI50 (ACHN renal): 1.82 µM
TGI (ACHN renal): 3.58 µM
GI50 (NCI/ADR-RES ovarian): 3.05 µM
TGI (NCI/ADR-RES ovarian): 7.19 µM
GI50 (NCI-H460 lung): 2.02 µM
TGI (NCI-H460 lung): 4.65 µM
GI50 (CCRF-CEM leukemia): 2.09 µM
TGI (CCRF-CEM leukemia): > 100 µM
GI50 (COLO 205 colon): 1.92 µM
TGI (COLO 205 colon): 5.74 µM
GI50 (BT-549 breast): 1.71 µM
TGI (BT-549 breast): 4.06 µM
GI50 (HCC-2998 colon): 1.95 µM
TGI (HCC-2998 colon): 3.66 µM
GI50 (LOX IMVI melanoma): 1.69 µM
TGI (LOX IMVI melanoma): 3.43 µM
GI50 (SNB-19 CNS): 2.89 µM
TGI (SNB-19 CNS): 10.8 µM
GI50 (SK-MEL-5 melanoma): 1.63 µM
TGI (SK-MEL-5 melanoma): 3.08 µM
GI50 (SF-268 CNS): 2.56 µM
TGI (SF-268 CNS): 7.64 µM
GI50 (OVCAR-8 ovarian): 2.82 µM
TGI (OVCAR-8 ovarian): > 100 µM
GI50 (NCI-H226 lung): 2.25 µM
TGI (NCI-H226 lung): 5.26 µM
GI50 (K-562 leukemia): 2.36 µM
TGI (K-562 leukemia): > 100 µM
GI50 (RPMI-8226 leukemia): 2.38 µM
TGI (RPMI-8226 leukemia): 9.19 µM
GI50 (DU-145 prostate): 1.73 µM
TGI (DU-145 prostate): 3.43 µM
GI50 (CAKI-1 renal): 1.81 µM
TGI (CAKI-1 renal): 3.9 µM
GI50 (NCI-H522 lung): 1.59 µM
TGI (NCI-H522 lung): 3.96 µM
GI50 (SNB-75 CNS): 1.1 µM
TGI (SNB-75 CNS): 2.53 µM
GI50 (HCT-116 colon): 1.59 µM
TGI (HCT-116 colon): 3.11 µM
GI50 (UACC-257 melanoma): 1.76 µM
TGI (UACC-257 melanoma): 3.87 µM
GI50 (SF-539 CNS): 1.86 µM
TGI (SF-539 CNS): 3.77 µM
GI50 (A498 renal): 2.03 µM
TGI (A498 renal): 5.37 µM
GI50 (RXF 393 renal): 1.88 µM
TGI (RXF 393 renal): 3.98 µM
GI50 (OVCAR-3 ovarian): 1.79 µM
TGI (OVCAR-3 ovarian): 3.39 µM
GI50 (HL-60(TB) leukemia): 1.79 µM
TGI (HL-60(TB) leukemia): 6.83 µM
GI50 (SN12C renal): 2.76 µM
TGI (SN12C renal): > 100 µM
GI50 (U251 CNS): 1.65 µM
TGI (U251 CNS): 3.27 µM
GI50 (MDA-MB-231 breast): 3.39 µM
TGI (MDA-MB-231 breast): > 100 µM
GI50 (PC-3 prostate): 3.01 µM
TGI (PC-3 prostate): > 100 µM
GI50 (HOP-62 NSCLC): 1.95 µM
TGI (HOP-62 NSCLC): 3.8 µM
GI50 (TK-10 renal): 5.08 µM
TGI (TK-10 renal): > 100 µM
GI50 (A549 NSCLC): 13.1 µM
TGI (A549 NSCLC): 62.5 µM
GI50 (UACC-62 melanoma): 1.73 µM
TGI (UACC-62 melanoma): 3.84 µM
GI50 (MOLT-4 leukemia): 1.54 µM
TGI (MOLT-4 leukemia): 5.29 µM
GI50 (MCF7 breast): 1.9 µM
TGI (MCF7 breast): 5.75 µM
GI50 (MDA-MB-435): 2.21 µM
TGI (MDA-MB-435): 5.55 µM
GI50 (SF-295 CNS): 1.31 µM
TGI (SF-295 CNS): 3.55 µM
GI50 (SK-MEL-2 melanoma): 2.09 µM
TGI (SK-MEL-2 melanoma): 5.29 µM
GI50 (SK-MEL-28 melanoma): 1.69 µM
TGI (SK-MEL-28 melanoma): 3.25 µM
GI50 (SW-620 colon): 1.77 µM
TGI (SW-620 colon): 3.7 µM
GI50 (HCT-15 colon): 3.02 µM
TGI (HCT-15 colon): 33.3 µM
GI50 (T-47D breast): 2.16 µM
TGI (T-47D breast): 5.88 µM
GI50 (786-0 renal): 1.8 µM
TGI (786-0 renal): 3.34 µM
GI50 (HOP-92 NSCLC): 2.97 µM
TGI (HOP-92 NSCLC): 26.1 µM
GI50 (KM12 colon): 1.67 µM
TGI (KM12 colon): 3.13 µM
GI50 (EKVX NSCLC): 3.62 µM
TGI (EKVX NSCLC): 21.3 µM
GI50 (OVCAR-5 ovarian): 2.37 µM
TGI (OVCAR-5 ovarian): 6.19 µM
